From publication PMC9681850, “Structural basis of synthetic agonist activation of the nuclear receptor REV-ERB” (Nature Communications, 2022)
Where “and” joins values, the source holds several entries; their conditions need not be identical. Equal entries are not always repeated.

How the values were obtained:
[1] = target: NCoR1-VP16 fusion protein (a fragment of the NCoR1 corepressor); experiment: two-hybrid reporter assay (Gal4-FL REV-ERBα/NCoR1-VP16); conditions: HEK293 cells with Gal4UAS luciferase reporter; read at the highest dose shared with WT, log [STL1267] (µM) about 0.4; parent: est. 49; read off a plot
[2] = system: proliferating C2C12 mouse myoblast cells; experiment: cell viability by crystal violet staining; format: cell-based; conditions: for cell viability (Fig. 2b source data): crystal violet, normalized to DMSO, single replicates; for reduction in cellular viability: proliferating C2C12 cells
Protocol: (§1) Cellular viability was tested in two cell types, human hepatocarcinoma HepG2 cells and proliferating C2C12 mouse myoblast cells.
(§2) Data are presented as mean ± SEM. Source data are available as a Source Data file.
(§3) The human hepatocellular carcinoma cell line, HepG2 cells (ATCC HB-8065), were cultured in 10% FBS 1% L-Glu MEM at 37 °C in a humidified atmosphere of 5% CO2. Prior to RNA extraction cells were treated with either DMSO or REV-ERB agonist for 24 h. The C2C12 proliferating mouse myoblast cells (ATCC, CRL-1772) were cultured in 10% FBS DMEM at 37 °C in a humidified atmosphere of 5% CO2. Prior to RNA extraction cells were treated with either DMSO or REV-ERB agonist for 24 h. […]
(§4) […] Media was removed, and cells were incubated with 0.5% crystal violet solution for 20 min at room temperature with mild agitation. Cells were washed four times with tap water before being air drying overnight. Cells were incubated in methanol for 20 min with mild agitation. Absorbance was read at 570 nm, and readings were normalized to vehicle (DMSO) treated cells.

HepG2 cells = experiment: cell viability by crystal violet staining; format: cell-based, human; conditions: for cell viability (Fig 2a source data): crystal violet, normalized to DMSO, single replicates
Protocol: as §1, §2, §3, §4

REV-ERB regulated genes = system: REV-ERB regulated genes; set-up: method as in ref 17 re-assessed; ref 48; conditions: RNA-seq data of ref 17 re-assessed; cited from earlier work
BMAL1 in HepG2 cells = experiment: expression of BMAL1 by qPCR; format: cell-based, human; set-up: key: Bmal1 expression normalized to Ppia; conditions: 5 μM, 24 h, single replicates (n = 4)
Description: We next determined whether STL1267 can regulate characterized REV-ERB modulated genes in cell lines expressing REV-ERB naturally. Five micromolar doses of both drugs were used in cell-based experiments from this point on. REV-ERB is an established component of the core molecular clock repressing the expression of core clock gene Bmal1[6],[27] as well as others[28],[29]. […] In skeletal muscle, REV-ERB agonism increases the expression of a wide variety of genes important in mitochondrial function.
The human hepatocellular carcinoma cell line, HepG2 cells (ATCC HB-8065), were cultured in 10% FBS 1% L-Glu MEM at 37 °C in a humidified atmosphere of 5% CO2. Prior to RNA extraction cells were treated with either DMSO or REV-ERB agonist for 24 h. The C2C12 proliferating mouse myoblast cells (ATCC, CRL-1772) were cultured in 10% FBS DMEM at 37 °C in a humidified atmosphere of 5% CO2. Prior to RNA extraction cells were treated with either DMSO or REV-ERB agonist for 24 h. Prior to crystal violet cytotoxicity assay, cells were treated with either DMSO or REV-ERB agonist for 48 h.
Mouse tissue was homogenized using a bullet blender. DNA/protein was removed by phase separation using BCP/chloroform. The supernatant (RNA containing fraction) was collected, and RNA was precipitated using isopropanol. The RNA pellets were washed with 75% ethanol and resolubilized in RNAse free water. […]

Row | Compound | response (Normalized RLU) [1] | cell viability (Fig. 2b source data) ([2]; C2C12, 1 uM) | cell viability (Fig. 2b source data) ([2]; C2C12, 2 uM) | cell viability (Fig. 2b source data) ([2]; C2C12, 5 uM) | cell viability (Fig. 2b source data) ([2]; C2C12, 10 uM) | cell viability (Fig. 2b source data) ([2]; C2C12, 20 uM) | reduction in cellular viability ([2]; 10 μM) | reduction in cellular viability ([2]; 20 μM) | cell viability (Fig 2a source data) (HepG2 cells; HepG2, 1uM, listed as SR009) | cell viability (Fig 2a source data) (HepG2 cells; HepG2, 2uM, listed as SR909) | cell viability (Fig 2a source data) (HepG2 cells; HepG2, 5uM) | cell viability (Fig 2a source data) (HepG2 cells; HepG2, 10uM) | cell viability (Fig 2a source data) (HepG2 cells; HepG2, 20uM) | reduction in cell viability (HepG2 cells; HepG2 cells, 10 and 20 μM) | REV-ERB regulated genes still regulated in Rev-erbα/β DKO hepatocytes (REV-ERB regulated genes) | Bmal1 (Fig. 2c) expression (BMAL1 in HepG2 cells)
1 | full length human REV-ERBα fused to the GAL4 DNA-binding domain (wild type) (from UniProt P20393) F443A | 7 |  |  |  |  |  |  |  |  |  |  |  |  |  |  | 
2 | CCOC(=O)N1CCC(CN(Cc2ccc(Cl)cc2)Cc2ccc([N+](=O)[O-])s2)C1 (centres unmarked) [SR9009, reference compound] |  | 96.141 and 87.1558 and 95.0006 and 119.571 and 103.64 | 73.3671 and 83.0434 and 96.4175 and 95.0006 and 98.2145 and 106.301 and 112.141 and 107.994 | 97.5233 and 96.3829 and 104.02 and 104.331 and 114.111 and 109.239 and 109.791 and 104.884 | 81.4883 and 68.2525 and 56.4681 and 49.4183 and 62.032 and 78.1707 and 78.3435 and 86.2228 | 29.4436 and 32.6575 and 37.392 and 34.0399 and 33.6597 and 55.6387 and 64.9695 and 68.7363 | ~ 25% | ~ 50% | 97.2789 and 85.5104 and 113.189 and 114.805 and 107.077 and 107.33 and 98.8951 and 92.8847 | 100.006 and 84.3488 and 101.774 and 112.583 and 88.7935 and 85.3589 and 86.1671 and 96.3697 | 99.2992 and 90.5108 and 87.6823 and 102.582 and 76.621 and 82.8335 and 95.5616 and 87.3793 | 106.875 and 80.1566 and 109.199 and 93.9453 and 73.8936 and 70.661 and 84.7528 and 82.682 | 91.723 and 73.742 and 95.107 and 95.2585 and 84.7528 and 75.1058 and 92.3796 and 105.158 | ~ 10% | 39% | 0.6576 and 0.6833 and 0.6229 and 0.6990
3 | full length human REV-ERBα fused to the GAL4 DNA-binding domain (wild type) (from UniProt P20393) F488A | 73 |  |  |  |  |  |  |  |  |  |  |  |  |  |  | 
